Measurements reported in patent US5866377A, “Aminooligosaccharide derivative and process for preparing the same” (Chong Kun Dang Corporation, priority 1994, dated 1999).
pIC50: −log10 of the molar value.

How the values were obtained:
Solubility = assay type: physicochemical
Source text: soluble in water and ethanol insoluble in benzene and normal hexane

[1] = Acidic, neutral or basic properties; assay type: physicochemical
Source text: 13. Acidic, neutral or basic properties:

[2] = tested on: Gram-positive bacterial strains; assay: Antibacterial activity, paper disc method, Gram-positive strains; assay type: cell-based; conditions: 1 mg/ml sample
Procedure: (§1) Antibacterial activities for Gram-positive and negative bacterial strains were determined with 1 mg/ml of CK-4416 sample, by employing paper disc method.

[3] = tested on: Comamonas terrigena(ATCG 8461); assay: Antibacterial activity, paper disc method, Gram-negative strain; assay type: cell-based; conditions: 1 mg/ml sample, read-out: inhibitory zone
Procedure: To four of 500 ml Erlenmeyer flasks was addled 100 ml of a medium for seed culture(pH 6.5) containing glucose 1 (w/v) %, dextrin 1 (w/v) %, NZ-amine(type A) 0.5 (w/v) %, yeast extract 0.5 (w/v) % and calcium carbonate 0.1 (w/v) %, and sterilized at 120° C. for 15 min. 1 platinum loop of slant culture of Streptomyces sp. CK-4416 which was obtained from a subculture, was inoculated to each of four flasks and incubated under shaking at 27° C. for 3 days. Then, 100 ml of culture media(pH 6.5) containing soluble starch 3 (w/v) %, soybean powder 1.5 (w/v) %, corn steep liquor 1.5 (w/v) %, polypeptone 0.2 (w/v) %, Na2 S2 O3 0.1 (w/v) %, calcium carbonate 0.5 (w/v) %, cobalt chloride 0.0001 (w/v) % was added to 200 of 500 ml Erlenmeyer flasks and sterilized at 120° C. for 30 min. 2 (v/v) % of seed culture was inoculated to the media and incubated at 27° C. for 3 days under shaking at 240 rpm. CK-4416 was quantitatively assayed by the determination of antimicrobial activity employing a test organism Comamonas terrigena(ATCC 8461) in accordance with conventional paper disc method. After 3 days culture, pH and yield were determined as 7.2 and 0.06 mg/ml, respectively.
as §1

amylase = assay: Inhibition of amylase activity; assay type: biochemical; conditions: 0.25M phosphate buffer pH 7.0, starch substrate, 37° C., absorbance at 660 nm; 30 min; read-out: half(50%) inhibition ratio for amylase activity(IC50)
Procedure: An enzyme solution(hereinafter referred to as `solution A`) containing amylase dissolved in 0.25M phosphate buffer(pH 7.0), 0.25M phosphate buffer solution(pH 7.0)(hereinafter referred to as `solution B`) and 0.04 (w/v) % starch solution (hereinafter referred to as `solution C`) were prepared, respectively. Then, 0.05 ml of solution B containing CK-4416 dissolved in solution B, 0.1 ml of solution B and 0.05 ml of solution B were combined to incubate at 37° C. for 5 min, and further incubated for 30 min after the addition of 0.5 ml of solution C. After […], absorbance at 660 nm was deter-mined for CK-4416 sample(T) and control(C) which is free of sample.
Inhibition ratio=(C-T)/C×100

blood glucose level = assay: Lowering of sugar level in blood after oral starch load; assay type: in vivo; conditions: male SD rats fasted 12 hrs, 1 hr after administration, glucose oxidase method
Procedure: To two groups of 5 male SD rats fasted for 12 hrs, 1.5 g/kg of starch was orally administered, concurrently with 40 mg/kg and 80 mg/kg of samples. Then, blood was taken from the rats after 1 hr from administration, and glucose level in blood was determined by glucose oxidase method and compared with control group which has not taken the CK-4416 sample.

## OCC1OC(OC2C(CO)OC(OC3C(CO)OC(OC4C(CO)OC(OC5C(CO)OC(O)C(O)C5O)C(O)C4O)C(O)C3O)C(O)C2O)C(O)C(O)C1NC1C(O)C(O)C(O)C2(CO)OC12 (single isomer, unassigned) [CK-4416]
Solubility; in benzene and normal hexane
  Solubility: insoluble
Solubility; in water and ethanol
  Solubility: soluble
[1]
  Acidic, neutral or basic properties: weakly basic
[2]
  Antibacterial activity: no activity
[3]
  zone of inhibition at 1000 µg/mL: 24.8 mm
amylase
  pIC50: 5.80
Blood glucose level; 40 mg/kg oral with 1.5 g/kg starch
  Blood glucose level: 97.5 ± 14.3
Blood glucose level; 80 mg/kg oral with 1.5 g/kg starch
  Blood glucose level: 87.5 ± 11.3
